Some test systems named below: HCT-116 colon; HL-60(TB) leukemia; KM12 colon; RPMI-8226 leukemia; SF-295 CNS; SK-MEL-28 melanoma; SK-OV-3 ovarian; SN12C renal; SNB-75 CNS; TK-10 renal.
Assay in all cases: NCI tumour cell line growth inhibition, 48 h

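Exposure lasted 48 hours, with cells grown in 96-well plates and compounds tested at five concentrations. Here, GI50 denotes the concentration required for 50% inhibition of growth. TGI: total growth inhibition.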

Results on eleven molecules are retold here after PubChem BioAssay (NCI).

With `CCNC(=O)c1ccc2c(c1)nc(-c1ccc(Cl)cc1)n2-c1cc(C(C)(C)C)[nH]n1`, the GI50 is 3.17 µM with HCT-116 colon; 2.72 µM in the test with HL-60(TB) leukemia; 3.12 µM with KM12 colon; 2.84 µM in the test with RPMI-8226 leukemia; 2.82 µM in the test with SF-295 CNS; 2.78 µM in the test with SK-MEL-28 melanoma. Further, the GI50 in the test with SK-OV-3 ovarian was 3.6 µM; in the test on SN12C renal, 3.79 µM; with SNB-75 CNS it was 2.17 µM; in the test with TK-10 renal it was 6.14 µM. In addition, the TGI came to 12.3 µM with HCT-116 colon; 7.6 µM with HL-60(TB) leukemia; 36.8 µM in the test on KM12 colon; 14.1 µM in the test on RPMI-8226 leukemia; 11.6 µM with SF-295 CNS; 11.7 µM in the test on SK-MEL-28 melanoma. Also, the TGI stood at 17.3 µM with SK-OV-3 ovarian, 70 µM with SN12C renal, 12 µM with SNB-75 CNS and 71.3 µM in the test on TK-10 renal.
For `CCCCCCCCCCNC(=S)OCCCC`, the TGI with HCT-116 colon is 34.7 µM; in the test on HL-60(TB) leukemia, 31.2 µM; in the test with KM12 colon, 29.9 µM; with RPMI-8226 leukemia, 34.9 µM; with SF-295 CNS, > 100 µM; in the test with SK-MEL-28 melanoma it was 72.2 µM. Moreover, the TGI in the test on SK-OV-3 ovarian is 77.3 µM; in the test on SN12C renal, 38.2 µM; in the test on SNB-75 CNS it was 86.7 µM; in the test on TK-10 renal it was 45 µM.
For `NC(=O)OCC(COc1ccc(Cl)cc1)OC(=O)c1cc([N+](=O)[O-])cc([N+](=O)[O-])c1` (stereo not drawn), the TGI in the test with HCT-116 colon, in the test with HL-60(TB) leukemia, in the test on KM12 colon, in the test with RPMI-8226 leukemia, in the test with SF-295 CNS and in the test on SK-MEL-28 melanoma was > 100 µM throughout. Besides, the TGI with SK-OV-3 ovarian, in the test with SN12C renal, in the test with SNB-75 CNS and in the test on TK-10 renal was > 100 µM throughout.
Turning to `CCOC(=O)/C(=C/c1ccc(Cl)cc1)N(CC)CC`, the TGI in the test with HCT-116 colon, in the test with HL-60(TB) leukemia, in the test on KM12 colon, in the test on RPMI-8226 leukemia, in the test on SF-295 CNS and with SK-MEL-28 melanoma was > 100 µM each time. Further, the TGI in the test on SK-OV-3 ovarian, with SN12C renal, with SNB-75 CNS and in the test with TK-10 renal was > 100 µM each time.
For the molecule `C/C=C/C=C\C(=O)C1c2cccc(O)c2C(=O)c2c(O)cc(C)cc21` (stereo not drawn), the TGI was found to be 2.92 µM in the test with HCT-116 colon; 7.04 µM in the test with HL-60(TB) leukemia; 1.51 µM with KM12 colon; 7.26 µM with RPMI-8226 leukemia; 2.25 µM with SF-295 CNS; 3.51 µM with SK-MEL-28 melanoma. Besides, the TGI in the test on SK-OV-3 ovarian came out at 3.08 µM; in the test with SN12C renal, 5.74 µM; in the test with SNB-75 CNS, 2.74 µM; in the test with TK-10 renal, 3.76 µM.
With `Cc1cc2c(=O)c3ccccc3oc2c(C#N)c1C`, the TGI with HCT-116 colon, with HL-60(TB) leukemia, in the test on KM12 colon, with RPMI-8226 leukemia, with SF-295 CNS and in the test on SK-MEL-28 melanoma was > 100 µM in each case. Moreover, the TGI in the test with SK-OV-3 ovarian, with SNB-75 CNS and in the test with TK-10 renal was > 100 µM throughout.
Consider `CO[C@]12CCC(=O)N1C=Cc1c2[nH]c2ccccc12`, for which the TGI in the test with HCT-116 colon, in the test with HL-60(TB) leukemia, in the test on RPMI-8226 leukemia, with SF-295 CNS, with SK-MEL-28 melanoma and in the test with SNB-75 CNS was > 100 µM each time. Further, in the test with TK-10 renal, the TGI is > 100 µM.
In the case of `O=C1C(Cl)=C(Nc2ccccn2)C(=O)c2ccccc21`, the GI50 was 1.95 µM in the test on HCT-116 colon; 2.52 µM in the test on HL-60(TB) leukemia; 3.45 µM in the test on KM12 colon; 2.15 µM in the test with RPMI-8226 leukemia; 2.09 µM in the test on SK-MEL-28 melanoma; 13.9 µM with SK-OV-3 ovarian. Moreover, the GI50 in the test on SN12C renal was 2.33 µM; in the test with SNB-75 CNS, 2 µM; with TK-10 renal it was 12.9 µM. Besides, the TGI in the test with HCT-116 colon came out at 4.1 µM; in the test on HL-60(TB) leukemia it was 5.83 µM; with KM12 colon, 10.8 µM; with RPMI-8226 leukemia, 7.03 µM; in the test on SK-MEL-28 melanoma, 3.92 µM; in the test with SK-OV-3 ovarian, 26.9 µM. Moreover, the TGI in the test with SN12C renal stood at 5.17 µM; in the test with SNB-75 CNS, 4.49 µM; in the test on TK-10 renal it was 25.5 µM.
Regarding `[O]=[W](=[O])([OH])[OH]`, the GI50 in the test with HCT-116 colon, in the test with HL-60(TB) leukemia, with KM12 colon, in the test with RPMI-8226 leukemia, with SF-295 CNS and in the test with SK-MEL-28 melanoma was > 100 µM in each case. Also, the GI50 in the test on SN12C renal, in the test on SNB-75 CNS and in the test with TK-10 renal was > 100 µM throughout. For the same molecule, the TGI in the test with HCT-116 colon, in the test with HL-60(TB) leukemia, in the test on KM12 colon, in the test with RPMI-8226 leukemia, in the test on SF-295 CNS and in the test with SK-MEL-28 melanoma was > 100 µM each time. The TGI with SN12C renal, with SNB-75 CNS and in the test with TK-10 renal was > 100 µM throughout.
Regarding `CN1CCN(CCCOc2ccc3nc(Nc4ccc(C(F)(F)F)c(Cl)c4)ccc3c2)CC1`, the GI50 was 1.46 µM in the test with HCT-116 colon; 1.94 µM in the test with HL-60(TB) leukemia; 1.5 µM in the test with KM12 colon; 1.75 µM with RPMI-8226 leukemia; 1.67 µM in the test with SF-295 CNS; 1.88 µM in the test with SK-MEL-28 melanoma. The GI50 in the test on SK-OV-3 ovarian was 1.81 µM; in the test on SNB-75 CNS it was 0.903 µM; in the test with TK-10 renal, 1.8 µM. In addition, the TGI came out at 2.94 µM with HCT-116 colon; 4.01 µM in the test with HL-60(TB) leukemia; 3.05 µM in the test with KM12 colon; 4.12 µM in the test with RPMI-8226 leukemia; 3.2 µM in the test on SF-295 CNS; 3.89 µM with SK-MEL-28 melanoma. Further, the figures for the TGI in the test with SK-OV-3 ovarian, in the test on SNB-75 CNS and with TK-10 renal were 3.49 µM, 2.94 µM and 3.51 µM, respectively.
With `CC(=O)OC1CC(C)c2c(Cl)ncnc21` (stereo not drawn), the GI50 in the test with HCT-116 colon, with HL-60(TB) leukemia, in the test with KM12 colon, in the test on RPMI-8226 leukemia, in the test on SK-MEL-28 melanoma and with SK-OV-3 ovarian was > 100 µM in each case. Also, the GI50 in the test with SN12C renal, with SNB-75 CNS and in the test with TK-10 renal was > 100 µM throughout. Besides, the TGI in the test with HCT-116 colon, in the test on HL-60(TB) leukemia, in the test on KM12 colon, in the test on RPMI-8226 leukemia, with SK-MEL-28 melanoma and in the test on SK-OV-3 ovarian was > 100 µM throughout. Moreover, the TGI in the test with SN12C renal, with SNB-75 CNS and with TK-10 renal was > 100 µM throughout.
